Values of other authors in patent US20050154022A1, “4-aryl piperidines” (H. Lundbeck A/S, priority 2004, published 2005).

Columns and labels:
Conditions in all cases: see Borowsky et al. (2002)
rat [1] = system: rat
rat [2] = system: rat; remark: listed apart in the source
guinea pig = system: guinea pig

COCC1=C(C(=O)OC)[C@H](c2ccc(F)c(F)c2)N(C(=O)NCCCN2CCC(c3cccc(NC(C)=O)c3)CC2)C(=O)N1 [SNAP-7941]
effect in rat forced-swim test (animal model of depression/anxiety) (rat [1]): effects similar to clinically used antidepressants and anxiolytics
effect in rat social interaction test (animal model of depression/anxiety) (rat [2]): effects similar to clinically used antidepressants and anxiolytics
effect in guinea pig maternal-separation vocalization test (animal model of depression/anxiety) (guinea pig): effects similar to clinically used antidepressants and anxiolytics
